Among the data in PubChem BioAssay (NCI) are TGI and GI50 values, retold here.

Experiment in all cases: inhibition of tumour cell growth, NCI panel, 48 h
In assay [1] the test system is DMS 273 small cell lung.
Assay [2] deals with SNB-19 CNS.
The test system of assay [3] is EKVX NSCLC.
The subject of assay [4] is OVCAR-8 ovarian.
Assay [5] has as its system HCT-15 colon.
Assay [6] concerns UO-31 renal.
In assay [7] the test system is HL-60(TB) leukemia.
The subject of assay [8] is IGROV1 ovarian.
Assay [9] concerns NCI-H522 lung.
Assay [10] has as its system HS 578T breast.
Assay [11] concerns HCT-116 colon.
Assay [12] relates to MCF7 breast.
Assay [13] has as its system HOP-92 NSCLC.

Values joined by “and” are separate entries in the source; they are usually repeats but may differ in a detail not shown here. Equal entries are not always repeated.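 Interpolation was linear, between the two tested concentrations surrounding the appropriate level; five concentrations were tested over 48 hours in 96-well plates. GI50 is the concentration that inhibits growth by half. TGI is the concentration that stops growth completely.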 Starred links: 1 amine or outer side, 2 acyl side, 3 side chain; linkers in the order of their positions; H or OH if unused. Positions of bridges follow the written chain, without caps; N, C: chain ends. Non-standard residues stand in square brackets, D forms with d. Residues, ends and D or L forms follow the SMILES beside them. Chains are numbered I, II in the order given. Actinocin(9to1) = Cc1c2oc3c(C)ccc(C(=O)[*:1])c3nc-2c(C(=O)[*:2])c(N)c1=O; NMeY = CN[CH](Cc1ccc(O)cc1)C(=O)O; Sar = CNCC(=O)O

As for `COc1cc2c(cc1OC)C(CC1=C(c3ccccc3)CN3CCc4cc(OC)c(OC)cc4C3C1)NCC2` (stereo not given), the TGI in assay [1] was determined as 31.6 µM; in assay [2], 38.8 µM; in assay [3], 38.8 µM; in assay [4], 36.8 µM; in [5], 36.1 µM; in [6], 23.4 µM. In addition, the TGI in [7] amounted to 28.6 µM; in assay [8], 32.8 µM.
`CC1=C(C)CC2C(=O)N(c3cc(C(C)(C)C)ccc3C(C)(C)C)C(=O)C2C1` (stereo not given): the TGI was 23.9 µM in assay [9]; 56.8 µM in assay [10]; over 100 µM in assay [11]; 17.2 µM in [12]; over 100 µM in assay [2]; over 100 µM in assay [13]. The TGI in assay [3], in assay [4], in assay [5], in assay [6], in assay [7] and in [8] was over 100 µM each time.
As to `Cc1ccnc2[nH]c(-c3ccc4ccccc4c3)cc(=O)c12`, the TGI in assay [9] came to 3.42 µM; in assay [10], 5.6 µM; in assay [11], 2.31 µM; in [12], 3.91 µM; in [2], 31 µM; in assay [13] it was 4.78 µM. In addition, the TGI in assay [3] came out at 26.8 µM; in [4], 14 µM; in [5] it was 10.8 µM; in assay [6] it was 16 µM; in [7], 0.609 µM; in assay [8], 11.1 µM. Besides, the GI50 in [11] is 0.428 µM; in [7], 0.202 µM.
As to `CN1C(=O)c2ccccc2OC12C=Cc1c(ccc3ccccc13)O2` (stereo not given), the TGI in assay [9] was 6.27 µM; in assay [10], 33.1 µM; in [11] it was 14.2 µM; in [12], over 44.6 µM; in assay [2], over 59.4 µM; in [13] it was 8.47 µM. Also, the TGI in [3] is 10.7 µM; in assay [4] it was 17.6 µM; in assay [5] it was over 25.5 µM; in [6], 35.8 µM; in assay [7] it was 17.6 µM; in assay [8], 30.8 µM.
For `Cc1c2oc3c(C)ccc(C(=O)NC4C(=O)NC(C(C)C)C(=O)N5CCCC5C(=O)N(C)CC(=O)N(C)C(Cc5ccc(O)cc5)C(=O)OC4C)c3nc-2c(C(=O)NC2C(=O)NC(C(C)C)C(=O)N3CCCC3C(=O)N(C)CC(=O)N(C)C(Cc3ccc(O)cc3)C(=O)OC2C)c(N)c1=O` (stereo not given) (I: TVP[Sar][NMeY] / II: TVP[Sar][NMeY]; ester I:1-I:C, II:1-II:C; linker I:N-II:N via Actinocin(9to1); configuration not given here), the TGI in [9] is 0.11 µM and 0.031 µM; in assay [10] it was 0.0521 µM and 0.0624 µM; in [11] it was over 1 µM; in [12], over 1 µM; in assay [2], over 1 µM; in assay [13], over 1 µM. Besides, the TGI in [3] was over 1 µM; in assay [4], 0.612 µM; in [5], over 1 µM; in assay [6] it was > 1 µM and 0.459 µM; in assay [7], 0.0947 µM; in assay [8], over 1 µM. Also, the GI50 is 0.00553 µM and 0.00136 µM in [11]; 0.00329 µM in assay [12]; 0.00797 µM and 0.00332 µM in assay [2]; 0.231 µM and 0.102 µM in assay [3]; 0.988 µM and 0.116 µM in assay [5]; > 0.726 µM and 0.0874 µM in assay [6].
`COc1cccc(CCNC(=O)Cc2ccccc2CCO)c1`: the TGI in assay [9], in assay [10], in assay [11], in assay [12], in assay [2] and in [13] was over 100 µM each time. Also, the TGI in [3], in [4], in [5], in assay [6], in [7] and in assay [8] was over 100 µM throughout.
On to `O=c1oc2ccccc2cc1-c1cc2ccccn2c1`, for which the TGI in assay [9], in assay [10], in assay [11], in assay [12], in assay [2] and in assay [13] was over 100 µM throughout. In addition, the TGI in assay [3], in assay [4], in assay [5], in assay [6], in assay [7] and in [8] was over 100 µM each time.
`O=C1C2SC34c5c2c2ccccc2n5CCC3CCCN14` (stereo not given): the TGI in [9], in [10], in assay [11], in [12], in assay [2] and in [13] was over 100 µM each time. The TGI in assay [3], in assay [4], in [5], in assay [6], in assay [7] and in [8] was over 100 µM each time.
